Read-outs that look alike come from different tables or passages of the source.
Experiments:
[1] = target: T1, αvβ3 receptor (αvβ3 from human A375 cells) (Homo sapiens, UniProt P05106+P06756); test: αvβ3 binding test (echistatin displacement, WGA SPA beads)
T1 construct: αvβ3 from human A375 cells was purified analogously to a procedure which was described by Wong et al; endogenous in cells; host or cells: human A375 cells; the receptor was purified from the cells and used detergent-solubilised (n-octyl-glucopyranoside)
T1 sequence (P06756 31-889 limits assumed): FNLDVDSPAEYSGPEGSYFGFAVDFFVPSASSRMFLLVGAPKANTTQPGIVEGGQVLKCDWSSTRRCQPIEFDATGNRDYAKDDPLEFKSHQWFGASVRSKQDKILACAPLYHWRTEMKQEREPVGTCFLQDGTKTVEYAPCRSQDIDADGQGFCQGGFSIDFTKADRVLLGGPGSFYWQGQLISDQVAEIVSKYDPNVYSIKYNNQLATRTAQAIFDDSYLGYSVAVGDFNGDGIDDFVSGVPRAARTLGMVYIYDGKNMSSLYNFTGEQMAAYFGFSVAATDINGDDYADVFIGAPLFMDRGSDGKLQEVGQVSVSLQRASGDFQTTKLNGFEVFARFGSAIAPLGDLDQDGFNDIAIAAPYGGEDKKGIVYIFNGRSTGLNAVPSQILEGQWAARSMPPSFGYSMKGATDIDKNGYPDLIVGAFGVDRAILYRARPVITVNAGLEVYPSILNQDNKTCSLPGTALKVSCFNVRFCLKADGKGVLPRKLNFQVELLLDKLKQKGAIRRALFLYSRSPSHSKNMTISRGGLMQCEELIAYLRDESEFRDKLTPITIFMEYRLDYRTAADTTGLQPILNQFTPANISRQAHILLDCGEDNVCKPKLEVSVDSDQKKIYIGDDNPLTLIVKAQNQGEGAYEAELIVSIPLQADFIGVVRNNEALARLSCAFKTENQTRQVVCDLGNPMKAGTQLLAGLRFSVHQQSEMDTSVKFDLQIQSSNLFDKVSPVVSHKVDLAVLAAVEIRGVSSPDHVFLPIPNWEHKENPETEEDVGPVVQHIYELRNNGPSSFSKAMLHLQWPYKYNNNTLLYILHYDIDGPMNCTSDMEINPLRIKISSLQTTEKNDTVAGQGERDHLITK
T1 sequence (P06756 891-1048 partner limits assumed): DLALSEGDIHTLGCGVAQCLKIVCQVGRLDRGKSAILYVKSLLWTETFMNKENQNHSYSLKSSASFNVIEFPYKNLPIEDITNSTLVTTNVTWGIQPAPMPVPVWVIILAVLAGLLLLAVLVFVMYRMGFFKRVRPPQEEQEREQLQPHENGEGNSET
T1 sequence (P05106 27-788): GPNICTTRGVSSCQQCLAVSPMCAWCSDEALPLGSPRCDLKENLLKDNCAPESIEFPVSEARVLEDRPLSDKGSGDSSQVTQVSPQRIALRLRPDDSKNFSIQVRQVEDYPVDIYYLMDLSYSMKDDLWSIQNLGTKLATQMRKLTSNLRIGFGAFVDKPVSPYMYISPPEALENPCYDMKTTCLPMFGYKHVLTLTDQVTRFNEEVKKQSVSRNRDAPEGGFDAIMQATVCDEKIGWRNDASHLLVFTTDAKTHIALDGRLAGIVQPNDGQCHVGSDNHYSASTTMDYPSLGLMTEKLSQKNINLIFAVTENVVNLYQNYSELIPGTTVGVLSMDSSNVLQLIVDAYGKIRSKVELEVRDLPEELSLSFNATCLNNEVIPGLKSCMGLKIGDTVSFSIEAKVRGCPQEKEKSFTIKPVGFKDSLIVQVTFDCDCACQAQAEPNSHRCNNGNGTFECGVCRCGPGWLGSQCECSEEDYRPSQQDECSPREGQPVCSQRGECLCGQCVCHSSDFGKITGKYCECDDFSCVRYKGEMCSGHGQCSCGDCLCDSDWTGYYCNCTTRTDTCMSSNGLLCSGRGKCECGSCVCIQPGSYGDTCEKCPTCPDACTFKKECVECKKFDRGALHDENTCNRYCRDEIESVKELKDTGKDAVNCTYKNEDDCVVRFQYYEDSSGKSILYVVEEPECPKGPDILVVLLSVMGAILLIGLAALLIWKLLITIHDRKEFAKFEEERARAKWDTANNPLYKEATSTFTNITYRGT
Description: αvβ3 from human A375 cells was purified analogously to a procedure which was described by Wong et al. (Molecular Pharmacology, 50, 529–537 (1996)). In each case, 10 μl of αvβ3 (5 ng) in TBS pH 7.6, 2 mM CaCl2, 1 mM MgCl2, 1% n-octyl-glucopyranoside (Sigma); 10 μl of test substance in TBS pH 7.6, 0.1% DMSO and 45 μl of TBS pH 7.6, 2 mM CaCl2, 1 mM MgCl2, 1 mM MnCl2 were incubated at room temperature for 1 h. In each case, 25 μl of WGA SPA beads (Amersham, 4 mg/ml) and 10 μl of echistatin ([…], Amersham, chloramine-T labelled) were then added. After 16 hours at room temperature, the samples were measured in a scintillation measuring apparatus (Wallac 1450).

[2] = tested on: hemopoietic stem cells (bone marrow cells); test: CSF-induced proliferation of hemopoietic stem cells; type: cell-based, mice; details: Mus musculus, Bone marrow cell, 168 h, read-out: IC50, CSF-induced proliferation of hemopoietic stem cells, mouse bone marrow cells, recombinant murine GM-CSF, 7 days, colony count
Description: Bone marrow cells are flushed out of the femur of mice. 10^5 cells are incubated in McCoy 5A medium (0.3% agar) together with recombinant murine GM-CSF (Genzyme; parent cell colony formation) and the substances (10^−4 to 100 μg/ml) at 37° C. and 7% CO2. 7 days later, the colonies (<50 cells) and clusters (17–50 cells) are counted.

B16F10 = test: Growth inhibition test (MTT), cytotoxic action on tumour cell lines; type: cell-based; details: Mus musculus, B16-F10, 144 h, read-out: IC50 values of the cytotoxic action on tumour cell lines, B16F10
Description: (§1) The human large intestine cell lines SW 480 and HT29 (ATCC No. CCL 228 and HTB38), the human breast cell lines MDA-MB 231, MCF-7 and BT20 (ATCC No. HTB-, 26, 22 and 23) and the mouse melanoma cell line B16F 10 (CRL 6475) were grown to confluence in Roux dishes in RPMI 1640 medium with addition of 10% FCS. They were then trypsinized and taken up in RPMI plus 10% FCS to a cell count of 50,000 cells or, for B16F10, 20,000 cells per ml. 100 μl of cell suspension/well were added to a 96 microwell plate and incubated at 37° C. for 1 day in a CO2 incubator. A further 100 μl of RPMI medium and 1 μl of DMSO were then added with the test substances. The growth was checked after day 6. For this, 25 μl of MTT solution (3-(4,5-dimethylthiazol-2-yl)-2,5-diphenyltetrazolium bromide) was added to each well at a starting concentration of 5 mg/ml of H2O. The plate was incubated at 37° C. for 5 hours in a CO2 incubator. The medium was then aspirated and 100 μl of i-propanol/well were added. After shaking with 100 μl of H2O for 30 min, the extinction was measured at 595-nm using a Multiplate Reader (BIO-RAD 3550-UV).
(§2) The cytostatic action is indicated in Table 2 as an IC50 value, in each case for the individual cell lines.

BT20 = test: as above; type: cell-based; details: Homo sapiens, BT-20, 144 h, read-out: IC50 values of the cytotoxic action on tumour cell lines, BT20
Description: as §1, §2

HT 29 = test: as above; type: cell-based; details: Homo sapiens, HT-29, 144 h, read-out: IC50 values of the cytotoxic action on tumour cell lines, HT 29
Description: as §1, §2

MCF7 = test: as above; type: cell-based; details: Homo sapiens, MCF7, 144 h, read-out: IC50 values of the cytotoxic action on tumour cell lines, MCF7
Description: as §1, §2

MDA-MB 231 = test: as above; type: cell-based; details: Homo sapiens, MDA-MB-231, 144 h, read-out: IC50 values of the cytotoxic action on tumour cell lines, MDA-MB 231
Description: as §1, §2

SW480 = test: as above; type: cell-based; details: Homo sapiens, SW480, 144 h, read-out: IC50 values of the cytotoxic action on tumour cell lines, SW480
Description: as §1, §2

[3] = tested on: human breast cancer xenograft MX1; test: In-vivo inhibition of tumour growth using a nude mouse model; parameters: species or system athymic nude mice (NMRI nu/nu strain); details: subcutaneous MX1 xenograft in nude mice; 40 mg/kg given on day 1–3 and 14–16; T/C in percent
Text: In all in-vivo experiments for investigating the inhibition of tumour growth, athymic nude mice (NMRI nu/nu strain) were used. The tumour was developed by serial passage in nude mice. The human origin of the tumour was confirmed by isoenzymatic and immunohistochemical methods.
The tumour was implanted subcutaneously in both flanks of nu/nu nude mice 6 to 8 weeks old. The treatment was started, depending on the doubling time, as soon as the tumours had reached a diameter of 5–7 mm. The mice were assigned to the treatment group or the control group (5 mice per group having 8–10 assessable tumours) by randomization. The individual tumours of the control group all grew progressively.
The size of the tumours was measured in two dimensions by means of a slide gauge. The tumour volume, which correlated well with the cell count, was then used for all assessments. The volume was calculated according to the formula “length×breadth×breadth/2” ([a×b^2]/2, a and b represent two diameters arranged at right angles).
The values of the relative tumour volume (RTV) were calculated for each individual tumour by dividing the tumour size on day X with the tumour size on day 0 (at the time of randomization). […]
The inhibition of the increase of the tumour volume (tumour volume of the test group/control group, T/C, in percent) was the final measured value. […]

| Compound | IC50 [1] | IC50 [2] | IC50 (B16F10) | IC50 (BT20) | IC50 (HT 29) | IC50 (MCF7) | IC50 (MDA-MB 231) | IC50 (SW480) | optimal T/C (tumour volume of the test group/control group) [3] | IC50 ([1]; αvβ3 purified from human A375 cells, labelled echistatin, read-out: IC50 values of the binding to the αvβ3 receptor) |
| --- | --- | --- | --- | --- | --- | --- | --- | --- | --- | --- |
| CCCNC(=O)Nc1cccc(S(=O)(=O)Nc2cccc(C(CC(=O)O)NC(=O)CCCC(=O)N3CCC[C@H]3C(=O)N[C@@H](CC(C)C)C(=O)NCC(=O)N[C@@H](CC(C)C)C(=O)O[C@]3(CC)C(=O)OCc4c3cc3n(c4=O)Cc4cc5ccccc5nc4-3)c2)c1 (some centres unmarked) [Example 3.23] | 355 nM | 0.006 µg/mL | – | – | – | – | – | – | – | – |
| CC[C@@]1(OC(=O)[C@@H](NC(=O)[C@H](Cc2cnc[nH]2)NC(=S)Nc2cccc(C(CC(=O)O)NS(=O)(=O)c3ccc(-c4cccc(NC(=O)Nc5nc6ccccc6[nH]5)c4)cc3)c2)C(C)C)C(=O)OCc2c1cc1n(c2=O)Cc2cc3ccccc3nc2-1 (some centres unmarked) [Example 3.8] | 25 nM | 0.025 µg/mL | 800 nM | 400 nM | 200 nM | 200 nM | 200 nM | 350 nM | 15.9 | – |
| CCCNC(=O)Nc1cccc(S(=O)(=O)Nc2cccc(C(CC(=O)O)NC(=O)Nc3ccc(NC(=S)N[C@@H](Cc4c[nH]cn4)C(=O)N[C@H](C(=O)O[C@]4(CC)C(=O)OCc5c4cc4n(c5=O)Cc5cc6ccccc6nc5-4)C(C)C)cc3)c2)c1 (some centres unmarked) [Example 3.13] | 14 nM | 0.04 µg/mL | 200 nM | 150 nM | 90 nM | 100 nM | 200 nM | 200 nM | – | – |
| CCCNC(=O)Nc1cccc(S(=O)(=O)Nc2cccc(C(CC(=O)O)NC(=O)CCCC(=O)N[C@@H](CC(C)C)C(=O)NCC(=O)N[C@@H](CC(C)C)C(=O)O[C@]3(CC)C(=O)OCc4c3cc3n(c4=O)Cc4cc5ccccc5nc4-3)c2)c1 (some centres unmarked) [Example 3.21] | – | 0.08 µg/mL | – | – | – | – | – | – | – | 549 nM |
| CC[C@@]1(OC(=O)[C@@H](NC(=O)[C@H](Cc2c[nH]cn2)NC(=S)Nc2ccc(NC(=O)NC(CC(=O)O)c3cccc(NS(=O)(=O)c4cccc(NC(=N)N)c4)c3)cc2)C(C)C)C(=O)OCc2c1cc1n(c2=O)Cc2cc3ccccc3nc2-1 (some centres unmarked) [Example 3.5] | 36 nM | 0.02 µg/mL | 900 nM | 500 nM | 150 nM | 150 nM | 150 nM | 200 nM | – | – |

Source: patent US7220824B1, “Integrin-mediated drug targeting” (Bayer Aktiengesellschaft, priority 2000, dated 2007)
